Assay results published in ChEMBL document CHEMBL3774308, “KATching-Up on Small Molecule Modulators of Lysine Acetyltransferases” (J Med Chem, 2016).

What was measured:
[1] = target: T1, Histone acetyltransferase KAT2B (Homo sapiens, UniProt Q92831); assay: Inhibition of full length recombinant human FLAG-tagged PCAF expressed in baculovirus expression system using histone substrate incubated for 10 mins by radiometric gel assay
Target sequence in this assay (Q92831 whole entry): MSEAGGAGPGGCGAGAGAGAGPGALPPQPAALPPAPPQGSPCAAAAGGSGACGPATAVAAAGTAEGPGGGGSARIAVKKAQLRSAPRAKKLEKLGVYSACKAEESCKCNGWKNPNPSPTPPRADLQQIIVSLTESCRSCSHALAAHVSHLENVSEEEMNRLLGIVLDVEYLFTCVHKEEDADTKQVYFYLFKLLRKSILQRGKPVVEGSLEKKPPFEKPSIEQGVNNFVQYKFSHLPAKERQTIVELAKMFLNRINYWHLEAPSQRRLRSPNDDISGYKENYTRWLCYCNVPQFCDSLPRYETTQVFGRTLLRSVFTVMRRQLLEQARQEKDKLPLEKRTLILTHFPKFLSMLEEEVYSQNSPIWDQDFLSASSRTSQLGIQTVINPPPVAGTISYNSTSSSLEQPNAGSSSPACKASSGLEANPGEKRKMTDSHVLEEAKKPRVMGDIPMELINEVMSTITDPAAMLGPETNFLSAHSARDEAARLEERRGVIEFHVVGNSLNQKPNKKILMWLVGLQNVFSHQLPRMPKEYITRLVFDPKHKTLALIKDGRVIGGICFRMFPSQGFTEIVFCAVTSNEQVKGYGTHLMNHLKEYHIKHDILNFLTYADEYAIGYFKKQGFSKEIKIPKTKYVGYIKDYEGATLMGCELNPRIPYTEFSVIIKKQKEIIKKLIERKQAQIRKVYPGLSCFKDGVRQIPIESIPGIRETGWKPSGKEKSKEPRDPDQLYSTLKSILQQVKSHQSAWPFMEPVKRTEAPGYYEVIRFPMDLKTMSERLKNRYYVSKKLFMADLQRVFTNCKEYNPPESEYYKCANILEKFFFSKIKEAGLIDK

[2] = target: T2, Histone acetyltransferase p300 (Homo sapiens, UniProt Q09472); assay: Inhibition of full length recombinant human FLAG-tagged p300 expressed in baculovirus expression system using histone substrate incubated for 10 mins by radiometric gel assay
[3] = target: T2, Histone acetyltransferase p300; assay: Inhibition of recombinant p300 catalytic domain (unknown origin) using N-terminal histone H3 substrate by radiometric filter binding assay in presence of [3H]acetyl-CoA
[4] = target: T2, Histone acetyltransferase p300; assay: Inhibition of recombinant p300 catalytic domain (unknown origin) using N-terminal histone H3 substrate at 52 uM by orthogonal fluorescence assay in presence of [3H]acetyl-CoA relative to control
[5] = target: T2, Histone acetyltransferase p300; assay: Inhibition of full length recombinant His6-tagged p300 (unknown origin) expressed in baculovirus expression system using histone substrate at 25 uM after 10 mins by liquid scintillation counting method in presence of [3H]acetyl-CoA relative to control
[6] = target: T3, Histone acetyltransferase KAT5 (Homo sapiens, UniProt Q92993); assay: Inhibition of TIP60 (unknown origin) expressed in bacterial system using histone substrate at 25 uM after 10 mins by liquid scintillation counting method in presence of [3H]acetyl-CoA relative to control
Target sequence in this assay (Q92993 whole entry, looked up): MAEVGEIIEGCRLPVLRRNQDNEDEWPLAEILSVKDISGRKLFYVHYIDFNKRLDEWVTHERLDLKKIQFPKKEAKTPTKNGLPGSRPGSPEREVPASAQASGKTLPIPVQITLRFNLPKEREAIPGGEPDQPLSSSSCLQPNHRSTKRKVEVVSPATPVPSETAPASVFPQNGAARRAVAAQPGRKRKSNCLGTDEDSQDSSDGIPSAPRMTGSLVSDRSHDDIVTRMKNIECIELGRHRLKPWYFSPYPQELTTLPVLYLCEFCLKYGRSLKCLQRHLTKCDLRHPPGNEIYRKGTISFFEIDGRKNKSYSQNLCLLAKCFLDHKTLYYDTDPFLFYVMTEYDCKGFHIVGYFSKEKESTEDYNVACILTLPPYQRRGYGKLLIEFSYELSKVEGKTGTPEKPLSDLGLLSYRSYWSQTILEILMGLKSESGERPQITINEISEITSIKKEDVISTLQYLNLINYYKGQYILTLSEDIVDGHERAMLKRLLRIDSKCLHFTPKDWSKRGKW

[7] = target: T1, Histone acetyltransferase KAT2B; assay: Inhibition of full length recombinant FLAG-tagged PCAF (unknown origin) expressed in baculovirus expression system using histone substrate after 10 mins by liquid scintillation counting method in presence of [3H]acetyl-CoA
Target sequence in this assay (Q92831 whole entry): as the sequence (Q92831 whole entry) above

[8] = target: T4, CREB-binding protein (Homo sapiens, UniProt Q92793); assay: Inhibition of CBP (unknown origin) using N-terminal histone H3 substrate at 100 uM by radiometric filter binding based phenotypic screen in presence of [3H]acetyl-CoA relative to control
[9] = target: T3, Histone acetyltransferase KAT5; assay: Inhibition of TIP60 (unknown origin) using N-terminal histone H3 substrate at 100 uM by […] in presence of [3H]acetyl-CoA relative to control
Target sequence in this assay (Q92993 whole entry, looked up): as the sequence (Q92993 whole entry, looked up) above

[10] = target: T2, Histone acetyltransferase p300; assay: Inhibition of recombinant p300 catalytic domain (unknown origin) using N-terminal histone H3 substrate by orthogonal fluorescence assay in presence of [3H]acetyl-CoA
[11] = target: T2, Histone acetyltransferase p300; assay: Inhibition of recombinant p300 catalytic domain (unknown origin) using N-terminal histone H3 substrate by radiometric filter binding based phenotypic screen in presence of [3H]acetyl-CoA
[12] = target: T5, Histone acetyltransferase KAT2A (Homo sapiens, UniProt Q92830); assay: Inhibition of GCN5 (unknown origin) using N-terminal histone H3 substrate by radiometric filter binding based phenotypic screen in presence of [3H]acetyl-CoA
[13] = target: T1, Histone acetyltransferase KAT2B; assay: Inhibition of PCAF (unknown origin) using N-terminal histone H3 substrate by radiometric filter binding based phenotypic screen in presence of [3H]acetyl-CoA
Target sequence in this assay (Q92831 whole entry): as the sequence (Q92831 whole entry) above

[14] = target: Histone acetyltransferase KAT7 (Homo sapiens) (UniProt O95251); assay: Inhibition of HBO1 (unknown origin) using N-terminal histone H3 substrate at 100 uM by […] in presence of [3H]acetyl-CoA relative to control
[15] = target: T2, Histone acetyltransferase p300; assay: Activation of full length recombinant human His6-tagged p300 expressed in baculovirus infected Sf21 cells using N-terminal H3 peptide substrate at 275 uM after 10 mins by radiometric filter binding assay in presence of [3H]acetyl-CoA relative to control
[16] = target: T2, Histone acetyltransferase p300; assay: Inhibition of human recombinant p300 catalytic domain (1284 to 1673 residues) expressed in Escherichia coli using H4-8 peptide substrate by radiometric assay in presence of [3H]acetyl-CoA
[17] = target: T2, Histone acetyltransferase p300; assay: Inhibition of human recombinant C-terminal GST-tagged p300 (1195 to 1673 residues) expressed in competent Escherichia coli DH5alpha cells using histone substrate after 30 mins by scintillation counting method in presence of [3H]acetyl-CoA
[18] = target: T2, Histone acetyltransferase p300; assay: Inhibition of recombinant p300 (unknown origin) expressed in baculovirus expression system using histone substrate at 50 uM after 10 mins by liquid scintillation counting method in presence of [3H]acetyl-CoA relative to control
[19] = target: T1, Histone acetyltransferase KAT2B; assay: Inhibition of recombinant PCAF (unknown origin) expressed in baculovirus expression system using histone substrate at 50 uM after 10 mins by liquid scintillation counting method in presence of [3H]acetyl-CoA relative to control
Target sequence in this assay (Q92831 whole entry, looked up): as the sequence (Q92831 whole entry) above

[20] = target: T2, Histone acetyltransferase p300; assay: Inhibition of full length recombinant His6-tagged p300 (unknown origin) expressed in baculovirus expression system using histone substrate after 10 mins by liquid scintillation counting method in presence of [3H]acetyl-CoA
[21] = target: T1, Histone acetyltransferase KAT2B; assay: Inhibition of recombinant PCAF (unknown origin) expressed in baculovirus expression system using histone substrate after 10 mins by liquid scintillation counting method in presence of [3H]acetyl-CoA
Target sequence in this assay (Q92831 whole entry): as above

[22] = target: T3, Histone acetyltransferase KAT5; assay: Inhibition of recombinant TIP60 (unknown origin) using histone H4 peptide substrate assessed as reduction in NADH formation by spectrophotometric analysis
[23] = target: T2, Histone acetyltransferase p300; assay: Inhibition of recombinant GST-tagged p300 (unknown origin) using histone H4 peptide substrate assessed as reduction in NADH formation by spectrophotometric analysis
[24] = target: T1, Histone acetyltransferase KAT2B; assay: Inhibition of recombinant PCAF (unknown origin) using histone H4 peptide substrate assessed as reduction in NADH formation by spectrophotometric analysis
Target sequence in this assay (Q92831 whole entry): as above

[25] = target: T4, CREB-binding protein; assay: Inhibition of recombinant GST-tagged CBP (unknown origin) using histone H4 peptide substrate assessed as reduction in NADH formation by spectrophotometric analysis
[26] = target: T2, Histone acetyltransferase p300; assay: Inhibition of full length recombinant human His6-tagged p300 expressed in baculovirus infected Sf21 cells using N-terminal H3 peptide substrate after 10 mins by radiometric filter binding assay in presence of [3H]acetyl-CoA
[27] = target: T2, Histone acetyltransferase p300; assay: Inhibition of recombinant full length p300 (unknown origin) using N-terminal H4-20 peptide substrate incubated for 7 mins by radiometric gel assay in presence of [14C]acetyl-CoA
[28] = target: T1, Histone acetyltransferase KAT2B; assay: Inhibition of recombinant human PCAF catalytic domain (492 to 658 residues) expressed in Escherichia coli using histone H3 (5 to 23 residues) as substrate at 800 uM after 1 hr by liquid scintillation counting method in presence of [3H]acetyl-CoA relative to control
Target sequence in this assay (Q92831 whole entry, looked up): as the sequence (Q92831 whole entry) above

[29] = target: T5, Histone acetyltransferase KAT2A; assay: Inhibition of recombinant human GCN5 catalytic domain (497 to 663 residues) expressed in Escherichia coli using histone H3 (5 to 23 residues) as substrate at 800 uM after 1 hr by liquid scintillation counting method in presence of [3H]acetyl-CoA relative to control
[30] = target: T3, Histone acetyltransferase KAT5; assay: Inhibition of recombinant human GFP-tagged TIP60 expressed in chicken embryo DT40 cells using histone substrate at 500 uM incubated for 1 hr followed by ionizing radiation treatment by immunosorbent gel assay relative to control; assay type: cell-based
Target sequence in this assay (Q92993 whole entry, looked up): as the sequence (Q92993 whole entry, looked up) above

[31] = target: T2, Histone acetyltransferase p300; assay: Inhibition of recombinant human p300 catalytic domain (1284 to 1673 residues) using histone H3 peptide substrate at 100 uM after 1 hr by liquid scintillation counting method in presence of [3H]acetyl-CoA relative to control
[32] = target: T1, Histone acetyltransferase KAT2B; assay: Inhibition of recombinant human PCAF catalytic domain (492 to 658 residues) using histone H3 peptide substrate at 100 uM after 1 hr by liquid scintillation counting method in presence of [3H]acetyl-CoA relative to control
Target sequence in this assay (Q92831 whole entry, looked up): as the sequence (Q92831 whole entry) above

[33] = target: T1, Histone acetyltransferase KAT2B; assay: Inhibition of PCAF (unknown origin) using H4-15 peptide substrate at 10 uM incubated for 10 mins by radiometric filter binding assay in presence of [14C]acetyl-CoA relative to control
Target sequence in this assay (Q92831 whole entry, looked up): as the sequence (Q92831 whole entry) above

[34] = system: Saccharomyces cerevisiae; assay: Inhibition of yeast RTT109 using histone H3 substrate at 10 uM incubated for 2 to 4 mins by SDS-PAGE based autoradiography in presence of [14C]acetyl-CoA relative to control
[35] = system: Saccharomyces cerevisiae; assay: Inhibition of yeast GCN5 using histone H3 substrate at 10 uM incubated for 2 to 4 mins by SDS-PAGE based autoradiography in presence of [14C]acetyl-CoA relative to control
[36] = target: Histone acetyltransferase KAT6A (Homo sapiens) (UniProt Q92794); assay: Inhibition of human MOZ using histone H3 substrate at 10 uM incubated for 2 to 4 mins by SDS-PAGE based autoradiography in presence of [14C]acetyl-CoA relative to control
[37] = system: Saccharomyces cerevisiae; assay: Inhibition of yeast YJW458 TAP-tagged SAS2 expressed in Escherichia coli BL21-CodonPlus(DE3)-RIL cells using histone H3 as substrate at 10 uM incubated for 2 to 4 mins by SDS-PAGE based autoradiography in presence of [14C]acetyl-CoA relative to control
[38] = target: T2, Histone acetyltransferase p300; assay: Inhibition of full length recombinant His6-tagged p300 (unknown origin) expressed in baculovirus infected sf21 cells using histone substrate after 10 mins by liquid scintillation counting method in presence of [3H]acetyl-CoA

T2 sequence (Q09472 whole entry, the tested form may be a part): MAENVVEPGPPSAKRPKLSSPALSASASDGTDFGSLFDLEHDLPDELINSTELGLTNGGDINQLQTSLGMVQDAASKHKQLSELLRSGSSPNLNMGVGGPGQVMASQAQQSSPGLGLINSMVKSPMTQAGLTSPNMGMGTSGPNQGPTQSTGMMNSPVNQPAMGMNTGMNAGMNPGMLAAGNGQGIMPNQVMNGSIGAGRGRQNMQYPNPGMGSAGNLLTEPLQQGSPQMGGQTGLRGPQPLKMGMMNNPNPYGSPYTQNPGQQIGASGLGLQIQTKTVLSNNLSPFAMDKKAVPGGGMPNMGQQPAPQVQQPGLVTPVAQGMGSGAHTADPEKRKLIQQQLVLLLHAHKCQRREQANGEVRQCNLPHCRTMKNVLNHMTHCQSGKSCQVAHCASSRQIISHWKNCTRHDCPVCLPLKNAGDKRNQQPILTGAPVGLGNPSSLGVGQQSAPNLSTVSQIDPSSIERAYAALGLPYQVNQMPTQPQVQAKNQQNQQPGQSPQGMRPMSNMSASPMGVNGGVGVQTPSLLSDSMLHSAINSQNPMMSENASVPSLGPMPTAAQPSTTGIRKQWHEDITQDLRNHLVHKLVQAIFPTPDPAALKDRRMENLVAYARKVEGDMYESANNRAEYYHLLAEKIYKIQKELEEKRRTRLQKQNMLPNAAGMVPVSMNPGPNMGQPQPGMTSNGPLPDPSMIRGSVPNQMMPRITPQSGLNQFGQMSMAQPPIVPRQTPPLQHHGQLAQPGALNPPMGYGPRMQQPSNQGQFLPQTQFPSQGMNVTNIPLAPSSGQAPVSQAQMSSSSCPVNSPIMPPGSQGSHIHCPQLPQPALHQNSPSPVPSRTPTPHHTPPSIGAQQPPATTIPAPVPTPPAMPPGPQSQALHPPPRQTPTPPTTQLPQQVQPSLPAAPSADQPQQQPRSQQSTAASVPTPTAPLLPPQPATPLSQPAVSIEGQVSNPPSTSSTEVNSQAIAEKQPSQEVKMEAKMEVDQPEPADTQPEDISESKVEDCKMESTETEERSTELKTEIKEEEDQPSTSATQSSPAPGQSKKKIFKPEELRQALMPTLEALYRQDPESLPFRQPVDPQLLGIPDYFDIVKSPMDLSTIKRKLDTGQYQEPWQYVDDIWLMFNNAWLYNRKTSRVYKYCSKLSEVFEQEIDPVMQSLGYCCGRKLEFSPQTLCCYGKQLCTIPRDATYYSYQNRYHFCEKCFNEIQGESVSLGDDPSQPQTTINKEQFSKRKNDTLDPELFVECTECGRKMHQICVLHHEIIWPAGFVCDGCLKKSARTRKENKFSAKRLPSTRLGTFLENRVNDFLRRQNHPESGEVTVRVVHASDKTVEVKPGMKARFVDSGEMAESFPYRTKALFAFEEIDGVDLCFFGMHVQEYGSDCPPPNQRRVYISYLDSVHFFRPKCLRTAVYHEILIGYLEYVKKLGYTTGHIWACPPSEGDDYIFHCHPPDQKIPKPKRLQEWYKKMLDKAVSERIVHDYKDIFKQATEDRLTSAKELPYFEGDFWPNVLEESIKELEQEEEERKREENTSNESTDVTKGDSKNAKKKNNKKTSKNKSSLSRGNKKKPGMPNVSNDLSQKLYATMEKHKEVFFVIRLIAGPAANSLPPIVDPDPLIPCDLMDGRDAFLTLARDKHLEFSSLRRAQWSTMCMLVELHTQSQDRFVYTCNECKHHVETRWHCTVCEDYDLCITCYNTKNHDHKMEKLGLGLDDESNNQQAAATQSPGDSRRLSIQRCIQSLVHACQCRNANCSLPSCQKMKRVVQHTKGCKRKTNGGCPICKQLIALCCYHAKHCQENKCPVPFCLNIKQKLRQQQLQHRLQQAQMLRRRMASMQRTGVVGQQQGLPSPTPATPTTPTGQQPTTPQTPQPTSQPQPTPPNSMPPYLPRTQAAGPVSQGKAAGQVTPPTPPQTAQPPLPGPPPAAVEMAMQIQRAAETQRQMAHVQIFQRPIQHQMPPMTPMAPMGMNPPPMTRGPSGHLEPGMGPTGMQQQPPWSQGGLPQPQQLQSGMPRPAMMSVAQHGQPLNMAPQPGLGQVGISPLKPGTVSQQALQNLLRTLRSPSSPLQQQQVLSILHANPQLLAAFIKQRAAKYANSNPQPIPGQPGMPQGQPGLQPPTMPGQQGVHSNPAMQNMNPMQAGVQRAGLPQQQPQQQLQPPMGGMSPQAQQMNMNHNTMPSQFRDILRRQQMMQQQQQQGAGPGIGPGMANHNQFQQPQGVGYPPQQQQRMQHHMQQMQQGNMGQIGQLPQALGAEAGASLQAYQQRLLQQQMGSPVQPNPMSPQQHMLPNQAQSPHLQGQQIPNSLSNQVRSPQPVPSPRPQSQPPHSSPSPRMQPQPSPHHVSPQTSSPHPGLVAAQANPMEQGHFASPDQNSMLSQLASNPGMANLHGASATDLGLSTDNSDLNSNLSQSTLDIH

Structure (SMILES): CNC(=O)[C@H](C)NC(=O)[C@H](CCCNC(=N)N)NC(=O)[C@@H](NC(=O)[C@H](CCCCN)NC(=O)[C@H](CCC(N)=O)NC(=O)[C@@H](NC(=O)[C@H](C)NC(=O)[C@H](CCCNC(=N)N)NC(=O)[C@H](CC(C)C)NC(=O)[C@H](CO)NC(=O)[C@@H](NC(=O)CNC(=O)CNC(=O)N[C@H](CCCCNC(=O)CSCCNC(=O)CCNC(=O)[C@@H](O)C(C)(C)COP(=O)(O)OP(=O)(O)OC[C@@H]1O[C@H](n2cnc3c(N)ncnc32)[C@@H](O)[C@H]1OP(=O)(O)O)C(=O)N[C@@H](C)C(=O)N1CCC[C@@H]1C(=O)N[C@H](CCCNC(=N)N)C(=O)N[C@H](CCCCN)C(=O)N[C@H](CCC(N)=O)C(=O)N[C@@H](CC(C)C)C(=O)O)[C@H](C)O)[C@H](C)O)[C@H](C)O
- IC50 [1]: 0.3 µM
- IC50 [2]: 200 µM

Structure (SMILES): CCCCCCCCCCCCCCCc1cccc(O)c1C(=O)O [ANACARDIC ACID]
- IC50 [3]: 4.15 µM
- %max [4]: 60%

Structure (SMILES): CCCCCCCCCCCC1=C(O)C(=O)C=C(O)C1=O [EMBELIN]
- inhibition [5]: 75%
- inhibition [6]: 75%
- IC50 [7]: 7.2 µM

Structure (SMILES): COc1ccc(S(=O)(=O)ON=C2C=C(C)C(=O)C(C)=C2)cc1
- inhibition [8]: 32%
- inhibition [9]: 2%
- IC50 [10]: 1.98 µM
- IC50 [11]: 128 µM
- IC50 [12]: 33.9 µM
- IC50 [13]: 34.7 µM
- inhibition [14]: 1%

Structure (SMILES): CCCCCCCCCCCCCCCc1cccc(OCC)c1C(=O)Nc1ccc(Cl)c(C(F)(F)F)c1
- Emax [15]: 400%

Structure (SMILES): CC(C)(C)OC(=O)NCCCCCNC(=O)CSCCNC(=O)CCNC(=O)[C@H](O)C(C)(C)COP(=O)(O)OP(=O)(O)OC[C@H]1O[C@@H](n2cnc3c(N)ncnc32)[C@H](O)[C@@H]1OP(=O)(O)O
- IC50 [16]: 0.07 µM

Structure (SMILES): N=C(N)NCCC[C@@H]1NC(=O)/C(=C/c2ccc(O)c(OCC[C@H](NC(=O)C[C@](O)(CC(=O)O)C(=O)O)C(=O)O)c2)NC1=O
- IC50 [17]: 0.022 µM

Structure (SMILES): COc1cc(/C=C/c2cc(/C=C/c3ccc(O)c(OC)c3)n(-c3ccc(C(=O)O)cc3)n2)ccc1O
- inhibition [18]: > 50%
- inhibition [19]: > 50%

Structure (SMILES): CC1=CC(=O)c2c(O)cccc2C1=O [PLUMBAGIN]
- IC50 [20]: 20 µM
- IC50 [21]: 50 µM

Structure (SMILES): N=C(N)NCCC[C@@H]1NC(=O)/C(=C/c2ccc(O)c(OCC[C@H](NC(=O)C[C@](O)(CC(=O)N[C@@H](CC(=O)O)C(=O)O)C(=O)O)C(=O)O)c2)NC1=O
- IC50 [17]: 0.011 µM

Structure (SMILES): O=C(O[C@@H]1Cc2c(O)cc(O)cc2O[C@@H]1c1cc(O)c(O)c(O)c1)c1cc(O)c(O)c(O)c1 [EPIGALOCATECHIN GALLATE]
- IC50 [22]: 70 µM
- IC50 [23]: 30 µM
- IC50 [24]: 60 µM
- IC50 [25]: 50 µM

Structure (SMILES): C=C(C)[C@@H](/C=C/C(C)C)C[C@@]12C[C@@H](/C=C\C(C)C)C(C)(C)[C@@](CC=C(C)C)(C(=O)C(C(=O)c3ccc(O)c(O)c3)=C1O)C2=O
- IC50 [26]: 7 µM

Structure (SMILES): CC(=O)N[C@@H](CCCCNC(=O)CSCCNC(=O)CCNC(=O)[C@H](O)C(C)(C)COP(=O)(O)OP(=O)(O)OC[C@H]1O[C@@H](n2cnc3c(N)ncnc32)[C@H](O)[C@@H]1OP(=O)(O)O)C(N)=O
- IC50 [27]: 0.05 µM
- IC50 [1]: 200 µM
- IC50 [17]: 0.0032 µM
- IC50 [2]: 0.5 µM

Structure (SMILES): CC1CC/C(=N/Nc2nc(-c3ccc(Cl)cc3)cs2)C1 (configuration not stated)
- inhibition [28]: 40%
- inhibition [29]: 40%

Structure (SMILES): O=C(O)Cn1nnc(-c2ccc(CN(CCCCOc3ccc(CN4CCCC4)cc3)CCc3ccccc3)cc2)n1
- inhibition [30]: 60%

Structure (SMILES): CCCCCCCCCCCCCCC=C(C(=O)OCC)C(=O)OCC
- inhibition [31]: 81.2%
- inhibition [32]: 37.5%

Structure (SMILES): CC1=NN(c2ccc(C(=O)O)cc2)C(=O)/C1=C\c1ccc(-c2cc(C)c(C)cc2[N+](=O)[O-])o1
- inhibition [33]: < 10%
- inhibition [34]: < 10%
- inhibition [35]: < 10%
- inhibition [36]: < 10%
- inhibition [37]: < 10%

Structure (SMILES): COc1ccc(C(=O)C2=C3OC(C)(C)[C@@H](CC=C(C)C)C[C@@]34C[C@@H](/C=C\C(C)C)C(C)(C)[C@@](CC=C(C)C)(C2=O)C4=O)cc1O
- IC50 [38]: 5 µM
